Experimental data reported in the NIST ThermoML archive (doi:10.1016/j.fluid.2018.04.012).

Experiment: xn = mol fraction of the nth substance listed
Settings: Liquid, Vibrating tube method

CC(C)OC(C)C [diisopropyl ether] + CC(C)O
mass density [kg/m3]
Settings	x2 = 0.1503	x2 = 0.2979	x2 = 0.4228	x2 = 0.5	x2 = 0.6737	x2 = 0.8483
333.15 K, 130000 kPa	–	–	–	807.2	815.2	824.7
333.15 K, 140000 kPa	799.3	804.1	808.6	811.9	819.7	829.1
353.19 K, 1000 kPa	665.8	673.2	680.7	685.4	698.3	713.7
353.19 K, 5000 kPa	673.7	680.7	687.7	692.4	704.7	719.5
353.19 K, 10000 kPa	682.3	689.1	695.5	700.2	711.9	726.1
353.19 K, 15000 kPa	690	696.5	702.7	707.2	718.5	732.2
353.19 K, 20000 kPa	696.9	703.2	709.2	713.6	724.5	737.7
353.19 K, 25000 kPa	703.3	709.3	715.3	719.5	730.1	742.9
353.19 K, 30000 kPa	709.2	715.1	720.9	725	735.3	747.8
353.19 K, 35000 kPa	714.7	720.5	726.2	730.1	740.2	752.4
353.19 K, 40000 kPa	719.8	725.4	731.2	734.9	744.8	756.7
353.19 K, 45000 kPa	724.6	730.2	735.9	739.5	749.2	760.8
353.19 K, 50000 kPa	729.4	734.8	740.3	743.9	753.5	764.9
353.19 K, 55000 kPa	733.7	739	744.5	748	757.3	768.6
353.19 K, 60000 kPa	737.8	743.1	748.6	752	761.1	772.2
353.19 K, 65000 kPa	741.9	747.1	752.5	755.8	764.9	775.8
353.19 K, 70000 kPa	745.7	750.9	756.2	759.5	768.4	779.2
353.19 K, 80000 kPa	752.9	758	763.2	766.3	775	785.5
353.19 K, 90000 kPa	759.7	764.7	769.7	772.8	781.4	791.6
353.19 K, 100000 kPa	766	770.8	775.8	778.9	787.2	797.2
353.19 K, 110000 kPa	772	776.8	781.5	784.7	792.9	802.7
353.19 K, 120000 kPa	777.6	782.3	786.9	790.1	798.1	807.7
353.19 K, 130000 kPa	782.9	787.6	792.1	795.2	803.1	812.6
353.19 K, 140000 kPa	788.1	792.7	797	800.2	808	817.4
373.24 K, 1000 kPa	641	648.3	655.6	660.4	673.6	689.6
373.24 K, 5000 kPa	650.7	657.5	664.2	669	681.4	696.7
373.24 K, 10000 kPa	661	667.6	673.7	678.3	690.1	704.5
373.24 K, 15000 kPa	670	676.2	682.1	686.6	697.9	711.6
373.24 K, 20000 kPa	678.1	684.1	689.7	694	704.8	718
373.24 K, 25000 kPa	685.3	691.1	696.6	700.8	711.2	724
373.24 K, 30000 kPa	692	697.6	703	707	717.1	729.5
373.24 K, 35000 kPa	698.1	703.6	708.9	712.8	722.6	734.7
373.24 K, 40000 kPa	703.9	709.2	714.5	718.1	727.8	739.6
373.24 K, 45000 kPa	709.2	714.5	719.6	723.3	732.7	744.3
373.24 K, 50000 kPa	714.2	719.3	724.5	728	737.2	748.6
373.24 K, 55000 kPa	719.1	724.1	729.2	732.6	741.7	752.7
373.24 K, 60000 kPa	723.5	728.5	733.6	736.9	745.8	756.7
373.24 K, 65000 kPa	727.8	732.8	737.8	741.1	749.8	760.5
373.24 K, 70000 kPa	732	736.8	741.8	745	753.6	764.2
373.24 K, 80000 kPa	739.7	744.5	749.3	752.6	760.9	771.2
373.24 K, 90000 kPa	747	751.7	756.3	759.4	767.7	777.7
373.24 K, 100000 kPa	753.7	758.3	762.8	765.9	774	783.8
373.24 K, 110000 kPa	760	764.5	768.9	772	779.9	789.5
373.24 K, 120000 kPa	765.9	770.4	774.7	777.8	785.5	795
373.24 K, 130000 kPa	771.6	776	780.2	783.3	790.9	800.2
373.24 K, 140000 kPa	776.9	781.3	785.3	788.5	796	805.1
393.28 K, 1000 kPa	614.1	620.6	627.9	632.9	645.9	662.5
393.28 K, 5000 kPa	626.4	632.4	638.9	643.7	655.9	671.3
393.28 K, 10000 kPa	639	644.7	650.5	655.2	666.5	680.9
393.28 K, 15000 kPa	649.7	655.1	660.6	665.1	675.7	689.4
393.28 K, 20000 kPa	658.9	664.1	669.5	673.7	683.9	696.9
393.28 K, 25000 kPa	667.1	672.2	677.4	681.4	691.2	703.8
393.28 K, 30000 kPa	674.7	679.5	684.6	688.5	698	710.1
393.28 K, 35000 kPa	681.5	686.3	691.3	695.1	704.2	716
393.28 K, 40000 kPa	687.8	692.5	697.4	701	710.1	721.5
393.28 K, 45000 kPa	693.6	698.2	703.2	706.6	715.4	726.6
393.28 K, 50000 kPa	699.1	703.7	708.6	711.8	720.5	731.5
393.28 K, 55000 kPa	704.5	708.9	713.6	716.9	725.4	736.2
393.28 K, 60000 kPa	709.2	713.7	718.4	721.6	729.9	740.5
393.28 K, 65000 kPa	713.9	718.3	723	726	734.3	744.7
393.28 K, 70000 kPa	718.4	722.8	727.3	730.4	738.5	748.8
393.28 K, 80000 kPa	726.7	731	735.5	738.5	746.4	756.3
393.28 K, 90000 kPa	734.4	738.6	742.9	746.1	753.7	763.4
393.28 K, 100000 kPa	741.5	745.6	749.9	752.9	760.4	769.9
393.28 K, 110000 kPa	748.3	752.4	756.4	759.5	766.8	776.1
393.28 K, 120000 kPa	754.5	758.5	762.5	765.5	772.8	781.8
393.28 K, 130000 kPa	760.4	764.4	768.3	771.3	778.4	787.4
393.28 K, 140000 kPa	766.1	770	773.8	776.8	783.9	792.7
